The text below walks through data of ChEMBL document CHEMBL1144933, “Novel bioactive and stable neurotensin peptide analogues capable of delivering radiopharmaceuticals and molecular beacons to tumors” (J Med Chem, 2003).

*1 amine or outer side, *2 acyl side, *3 side chain or, on linkers, in order; H or OH if unused. Where a SMILES comes first, the peptide text is derived from it. [ ]: non-standard residue; d: D form. The star is where a group is joined. Abu(1-amidino-4-piperidyl) = N=C(N)N1CCC(CC[C@H](N)C(=O)O)CC1; Gly(1-amidinopiperidin-4-yl) = N=C(N)N1CCC([C@H](N)C(=O)O)CC1; Ala(1-amidino-4-piperidyl) = N=C(N)N1CCC(C[C@H](N)C(=O)O)CC1; DTPA = O=C(O)CN(CCN(CC(=O)O)CC(=O)O)CCN(CC(=O)O)CC(=O)*; Phe(4-guanidino) = N=C(N)Nc1ccc(C[C@H](N)C(=O)O)cc1; X1 = NCC1CCC(C[C@H](N[*:1])C(=O)[*:2])CC1; Tle = CC(C)(C)[C@H](N)C(=O)O

For the first test, the target named is Neurotensin receptor type 1 (Homo sapiens, UniProt P30989). The test is described as follows: Binding affinity towards neurotensin receptor in membranes prepared from HT-29 cell line, relative to [111In]-labeled neurotensin peptide.
Sequence of Neurotensin receptor type 1 (P30989 whole entry): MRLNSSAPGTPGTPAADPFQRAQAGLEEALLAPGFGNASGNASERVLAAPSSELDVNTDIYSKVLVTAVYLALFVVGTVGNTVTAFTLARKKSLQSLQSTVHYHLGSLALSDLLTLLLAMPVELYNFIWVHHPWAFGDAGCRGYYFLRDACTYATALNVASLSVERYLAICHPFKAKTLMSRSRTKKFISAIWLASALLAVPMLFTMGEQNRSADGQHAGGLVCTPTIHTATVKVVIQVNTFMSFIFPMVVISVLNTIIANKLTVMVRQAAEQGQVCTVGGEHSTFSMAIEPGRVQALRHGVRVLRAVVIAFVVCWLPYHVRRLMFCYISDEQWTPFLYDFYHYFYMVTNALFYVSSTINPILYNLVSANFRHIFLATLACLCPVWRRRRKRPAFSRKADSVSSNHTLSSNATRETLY
Details: not given
Consider `CC[C@H](C)[C@H](NC(=O)[C@H](Cc1ccc(O)cc1)NC(=O)[C@@H]1CCCN1C(=O)[C@H](CCCN=C(N)N)NC(=O)[C@H](Cc1ccc(NC(=N)N)cc1)NC(=O)[C@@H]1CCCN1C(=O)[C@@H](CCCCN)NC(=O)CN(CCN(CCN(CC(=O)O)CC(=O)O)CC(=O)O)CC(=O)O)C(=O)N[C@@H](CC(C)C)C(=O)O`, for which the concentration for half-maximal inhibition (IC50) is 0.5 nM.

The molecule `CC[C@H](C)[C@H](NC(=O)[C@H](Cc1ccc(O)cc1)NC(=O)[C@@H]1CCCN1C(=O)[C@H](Cc1ccc(N=C(N)N)cc1)NC(=O)[C@H](CCCNC(=N)N)NC(=O)[C@@H]1CCCN1C(=O)[C@@H](CCCCN)NC(=O)CN(CCN(CCN(CC(=O)O)CC(=O)O)CC(=O)O)CC(=O)O)C(=O)N[C@@H](CC(C)C)C(=O)O` showed a half-inhibitory concentration (IC50) of 0.4 nM.

For `CC(C)(C)[C@H](NC(=O)[C@H](Cc1ccc(O)cc1)NC(=O)[C@@H]1CCCN1C(=O)[C@H](CCCN=C(N)N)NC(=O)[C@@H](NC(=O)[C@@H]1CCCN1C(=O)[C@H](CCCCN)NC(=O)[C@H](CC(N)=O)NC(=O)[C@H](CCC(=O)O)NC(=O)[C@@H](Cc1ccc(O)cc1)NC(=O)CN(CCN(CCN(CC(=O)O)CC(=O)O)CC(=O)O)CC(=O)O)C1CCN(C(=N)N)CC1)C(=O)N[C@@H](CC1CCCCC1)C(=O)O`, the IC50 came to 0.6 nM.

In the case of `CC(C)(C)C[C@H](NC(=O)[C@@H](NC(=O)[C@H](Cc1ccc(O)cc1)NC(=O)[C@@H]1CCCN1C(=O)[C@H](CCCNC(=N)N)NC(=O)[C@@H](NC(=O)[C@@H]1CCCN1C(=O)[C@H](CCCCN)NC(=O)[C@H](CC(N)=O)NC(=O)[C@H](CCC(=O)O)NC(=O)[C@@H](Cc1ccc(O)cc1)NC(=O)CN(CCN(CCN(CC(=O)O)CC(=O)O)CC(=O)O)CC(=O)O)C1CCN(C(=N)N)CC1)C(C)(C)C)C(=O)O`, the half-maximal inhibitory concentration (IC50) stood at 0.4 nM.

In turn, `CC(C)C[C@H](NC(=O)[C@@H](NC(=O)[C@H](Cc1ccc(O)cc1)NC(=O)[C@@H]1CCCN1C(=O)[C@H](CCCNC(=N)N)NC(=O)[C@@H](NC(=O)[C@H](CCCN=C(N)N)NC(=O)[C@@H]1CCN1C(=O)[C@@H](CCCCN)NC(=O)CN(CCN(CCN(CC(=O)O)CC(=O)O)CC(=O)O)CC(=O)O)C1CCN(C(=N)N)CC1)C(C)(C)C)C(=O)O` displayed an IC50 of 11.5 nM.

`CC(C)(C)C[C@H](NC(=O)[C@@H](NC(=O)[C@H](Cc1ccc(O)cc1)NC(=O)[C@@H]1CCCN1C(=O)[C@H](CCCN=C(N)N)NC(=O)[C@@H](NC(=O)[C@@H]1CCCN1C(=O)[C@@H](CCCCN)NC(=O)CN(CCN(CCN(CC(=O)O)CC(=O)O)CC(=O)O)CC(=O)O)C1CCN(C(=N)N)CC1)C(C)(C)C)C(=O)O` showed an IC50 of 21.7 nM.

Regarding `CC(C)(C)[C@H](NC(=O)[C@H](Cc1ccc(O)cc1)NC(=O)[C@@H]1CCCN1C(=O)[C@H](CCCN=C(N)N)NC(=O)[C@@H](NC(=O)[C@@H]1CCCN1C(=O)[C@@H](CCCCN)NC(=O)CN(CCN(CCN(CC(=O)O)CC(=O)O)CC(=O)O)CC(=O)O)C1CCN(C(=N)N)CC1)C(=O)N[C@@H](CC1CCCCC1)C(=O)O`, the concentration for half-maximal inhibition (IC50) was determined as 11.7 nM.

Consider `CC(C)C[C@H](NC(=O)[C@@H](NC(=O)[C@H](Cc1ccc(O)cc1)NC(=O)[C@@H]1CCN1C(=O)[C@H](CCCN=C(N)N)NC(=O)[C@@H](NC(=O)[C@H](CCCN=C(N)N)NC(=O)[C@@H]1CCCN1C(=O)[C@@H](CCCCN)NC(=O)CN(CCN(CCN(CC(=O)O)CC(=O)O)CC(=O)O)CC(=O)O)C1CCN(C(=N)N)CC1)C(C)(C)C)C(=O)O`, for which the 50% inhibitory concentration (IC50) came to 113 nM.

For `CC(C)(C)[C@H](NC(=O)[C@H](Cc1ccc(O)cc1)NC(=O)[C@@H]1CCCN1C(=O)[C@H](CCCNC(=N)N)NC(=O)[C@@H](NC(=O)[C@@H]1CCCN1C(=O)[C@@H](CCCCN)NC(=O)CN(CCN(CCN(CC(=O)O)CC(=O)O)CC(=O)O)CC(=O)O)C1CCN(C(=N)N)CC1)C(=O)N[C@@H](CC1CCCC1)C(=O)O`, the concentration for half-maximal inhibition (IC50) is 42.4 nM.

Take `CC(C)C[C@H](NC(=O)[C@@H](NC(=O)[C@H](Cc1ccc(O)cc1)NC(=O)[C@@H]1CCCN1C(=O)[C@H](CCCN=C(N)N)NC(=O)[C@@H](NC(=O)[C@@H]1CCCN1C(=O)[C@H](CCCCN)NC(=O)[C@H](CC(N)=O)NC(=O)[C@H](CCC(=O)O)NC(=O)[C@@H](Cc1ccc(O)cc1)NC(=O)CN(CCN(CCN(CC(=O)O)CC(=O)O)CC(=O)O)CC(=O)O)C1CCN(C(=N)N)CC1)C(C)(C)C)C(=O)O`: the IC50 was determined as 1.5 nM.

For the molecule `CC(C)C[C@H](NC(=O)[C@@H](NC(=O)[C@H](Cc1ccc(O)cc1)NC(=O)[C@@H]1CCCN1C(=O)[C@H](CCCN=C(N)N)NC(=O)[C@@H](NC(=O)[C@@H]1CCCN1C(=O)[C@H](CC1CCC(CN)CC1)NC(=O)CN(CCN(CCN(CC(=O)O)CC(=O)O)CC(=O)O)CC(=O)O)C1CCN(C(=N)N)CC1)C(C)(C)C)C(=O)O` (stereo partly drawn) ({DTPA}-[X1]P[Gly(1-amidinopiperidin-4-yl)]RPY[Tle]L-OH), the half-maximal inhibitory concentration (IC50) was determined as 0.3 nM.

Molecule `CC(C)C[C@H](NC(=O)[C@@H](NC(=O)[C@H](Cc1ccc(O)cc1)NC(=O)[C@@H]1CCCN1C(=O)[C@H](CCCNC(=N)N)NC(=O)[C@H](CCC1CCN(C(=N)N)CC1)NC(=O)[C@@H]1CCCN1C(=O)[C@@H](CCCCN)NC(=O)CN(CCN(CCN(CC(=O)O)CC(=O)O)CC(=O)O)CC(=O)O)C(C)(C)C)C(=O)O` ({DTPA}-[dK]P[Abu(1-amidino-4-piperidyl)]RPY[Tle]L-OH) came in with a half-inhibitory concentration (IC50) of 6.3 nM.

Regarding `CC(C)C[C@H](NC(=O)[C@@H](NC(=O)[C@H](Cc1ccc(O)cc1)NC(=O)[C@@H]1CCCN1C(=O)[C@H](CCCNC(=N)N)NC(=O)[C@H](CC1CCN(C(=N)N)CC1)NC(=O)[C@@H]1CCCN1C(=O)[C@@H](CCCCN)NC(=O)CN(CCN(CCN(CC(=O)O)CC(=O)O)CC(=O)O)CC(=O)O)C(C)(C)C)C(=O)O` ({DTPA}-[dK]P[Ala(1-amidino-4-piperidyl)]RPY[Tle]L-OH), the half-maximal inhibitory concentration (IC50) is 2.5 nM. This IC50 is about 2.5-fold lower than that of the molecule before.

Take `CC(C)C[C@H](NC(=O)[C@@H](NC(=O)[C@H](Cc1ccc(O)cc1)NC(=O)[C@@H]1CCCN1C(=O)[C@H](CCCN=C(N)N)NC(=O)[C@H](Cc1ccc(NC(=N)N)cc1)NC(=O)[C@@H]1CCCN1C(=O)[C@@H](CCCCN)NC(=O)CN(CCN(CCN(CC(=O)O)CC(=O)O)CC(=O)O)CC(=O)O)C(C)(C)C)C(=O)O` ({DTPA}-[dK]P[Phe(4-guanidino)]RPY[Tle]L-OH): the IC50 worked out at 24.6 nM.

For `CC[C@H](C)[C@H](NC(=O)[C@H](Cc1ccc(O)cc1)NC(=O)[C@@H]1CCCN1C(=O)[C@H](Cc1ccc(NC(=N)N)cc1)NC(=O)[C@H](Cc1ccc(NC(=N)N)cc1)NC(=O)[C@@H]1CCCN1C(=O)[C@@H](CCCCN)NC(=O)CN(CCN(CCN(CC(=O)O)CC(=O)O)CC(=O)O)CC(=O)O)C(=O)N[C@@H](CC(C)C)C(=O)O` ({DTPA}-[dK]P[Phe(4-guanidino)][Phe(4-guanidino)]PYIL-OH), the IC50 worked out at 22.1 nM.

The same test, now with this note: ht-29.
The molecule `CC(C)C[C@H](NC(=O)[C@@H](NC(=O)[C@@H](Cc1ccc(O)cc1)NC(=O)[C@@H]1CCCN1C(=O)[C@H](CCCN=C(N)N)NC(=O)[C@@H](NC(=O)[C@@H]1CCCN1C(=O)[C@@H](CCCCN)NC(=O)CN(CCN(CCN(CC(=O)O)CC(=O)O)CC(=O)O)CC(=O)O)C1CCN(C(=N)N)CC1)C(C)(C)C)C(=O)O` registered an IC50 of 0.6 nM.

`CC[C@H](C)[C@H](NC(=O)[C@H](Cc1ccc(O)cc1)NC(=O)[C@@H]1CCCN1C(=O)[C@H](CCCN=C(N)N)NC(=O)[C@H](CCc1ccnc(N)n1)NC(=O)[C@@H]1CCCN1C(=O)[C@@H](CCCCN)NC(=O)CN(CCN(CCN(CC(=O)O)CC(=O)O)CC(=O)O)CC(=O)O)C(=O)N[C@@H](CC(C)C)C(=O)O` had an IC50 of 10.2 nM. Against the preceding molecule, the IC50 is about 17-fold higher.

For `CC(C)C[C@H](NC(=O)[C@@H](NC(=O)[C@H](Cc1cccc(O)c1)NC(=O)[C@@H]1CCCN1C(=O)[C@H](CCCN=C(N)N)NC(=O)[C@@H](NC(=O)[C@@H]1CCCN1C(=O)[C@@H](CCCCN)NC(=O)CN(CCN(CCN(CC(=O)O)CC(=O)O)CC(=O)O)CC(=O)O)C1CCN(C(=N)N)CC1)C(C)(C)C)C(=O)O`, the IC50 was determined as 106 nM.

Turning to `CC(C)C[C@H](NC(=O)[C@@H](NC(=O)[C@H](Cc1ccc(O)cc1)NC(=O)[C@@H]1CCCN1C(=O)[C@@H](NC(=O)[C@@H](NC(=O)[C@@H]1CCCN1C(=O)[C@@H](CCCCN)NC(=O)CN(CCN(CCN(CC(=O)O)CC(=O)O)CC(=O)O)CC(=O)O)C1CCN(C(=N)N)CC1)C1CCNCC1)C(C)(C)C)C(=O)O`, the IC50 worked out at 59.6 nM.

Turning to `CC[C@H](C)[C@H](NC(=O)[C@H](Cc1ccc(O)cc1)NC(=O)[C@@H]1CCCN1C(=O)[C@H](CCCN=C(N)N)NC(=O)[C@@H](NC(=O)[C@@H]1CCCN1C(=O)[C@@H](CCCCNC(=S)Nc1ccc2c(c1)C(=O)OC21c2ccc(O)cc2Oc2cc(O)ccc21)NC(=S)Nc1ccc2c(c1)C(=O)OC21c2ccc(O)cc2Oc2cc(O)ccc21)C1CCN(C(=N)N)CC1)C(=O)N[C@@H](CC(C)C)C(=O)O`, the IC50 was found to be 3.4 nM.

For `CC[C@H](C)[C@H](NC(=O)[C@H](Cc1ccc(O)cc1)NC(=O)[C@@H]1CCCN1C(=O)[C@H](CCCN=C(N)N)NC(=O)[C@@H](NC(=O)[C@@H]1CCCN1C(=O)[C@H](N)CCCCNC(=S)Nc1ccc2c(c1)C(=O)OC21c2ccc(O)cc2Oc2cc(O)ccc21)C1CCN(C(=N)N)CC1)C(=O)N[C@@H](CC(C)C)C(=O)O`, the IC50 turned out to be 0.6 nM.

`CC[C@H](C)[C@H](NC(=O)[C@H](Cc1ccc(O)cc1)NC(=O)[C@@H]1CCCN1C(=O)[C@H](CCCNC(=N)N)NC(=O)[C@@H](NC(=O)[C@@H]1CCCN1C(=O)[C@@H](CCCCN)NC(=S)Nc1ccc2c(c1)C(=O)OC21c2ccc(O)cc2Oc2cc(O)ccc21)C1CCN(C(=N)N)CC1)C(=O)N[C@@H](CC(C)C)C(=O)O` registered a half-maximal inhibitory concentration (IC50) of 1.2 nM. Against the preceding molecule, the IC50 is about 2-fold higher.

In turn, `CC(C)C[C@H](NC(=O)[C@@H](NC(=O)[C@H](Cc1ccc(O)cc1)NC(=O)[C@@H]1CCCN1C(=O)[C@H](CCCN=C(N)N)NC(=O)[C@@H](NC(=O)[C@@H]1CCCN1C(=O)[C@@H](CCCCN)NC(=O)CN(CCN(CCN(CC(=O)O)CC(=O)O)CC(=O)O)CC(=O)O)C1CCN(C(=N)N)CC1)C(C)(C)C)C(=O)O` registered an IC50 of 0.4 nM.

As for `CC(C)C[C@H](NC(=O)[C@@H](NC(=O)[C@H](Cc1ccc(O)cc1)NC(=O)[C@@H]1CCCN1C(=O)[C@H](CCCNC(=N)N)NC(=O)[C@@H](NC(=O)[C@@H]1CCCN1C(=O)[C@H](CC1CCN(C(=N)N)CC1)NC(=O)CN(CCN(CCN(CC(=O)O)CC(=O)O)CC(=O)O)CC(=O)O)C1CCN(C(=N)N)CC1)C(C)(C)C)C(=O)O` ({DTPA}-[Ala(1-amidino-4-piperidyl)]P[Gly(1-amidinopiperidin-4-yl)]RPY[Tle]L-OH), the IC50 was more than 1000 nM.

For orientation: IC50 means the concentration that gives 50% inhibition. A low value points to inhibition by little substance.
